In patent publication US8541573B2, “Substituted sulfonamide compounds” (Gruenenthal GmbH, priority 2008, dated 2013):

Experiments:
human B1R = target: T1, human B1R (Homo sapiens, UniProt P46663); test: Functional investigation on the bradykinin 1 receptor (B1R), cell-based fluorescent calcium-mobilization assay (FLIPR/Novostar), human; conditions: 10 μM test substance; CHO K1 cells stably transfected with human B1R gene; agonist Lys-Des-Arg9-bradykinin at EC80; % inhibition compared with maximum achievable inhibition; read-out: B1R antagonism, human [10 μM] % inhibition
T1 construct: expressed in transfected cells; host or cells: CHO K1 cells
T1 sequence (P46663 1-353): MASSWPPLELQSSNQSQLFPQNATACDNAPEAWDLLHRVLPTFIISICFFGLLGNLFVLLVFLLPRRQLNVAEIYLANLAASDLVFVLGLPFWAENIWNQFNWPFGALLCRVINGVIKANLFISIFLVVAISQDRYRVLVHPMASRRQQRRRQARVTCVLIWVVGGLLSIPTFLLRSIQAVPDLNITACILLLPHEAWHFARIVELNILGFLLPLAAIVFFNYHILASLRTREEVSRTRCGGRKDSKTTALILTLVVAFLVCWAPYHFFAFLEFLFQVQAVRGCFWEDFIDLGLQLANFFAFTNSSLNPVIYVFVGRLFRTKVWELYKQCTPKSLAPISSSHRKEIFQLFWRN
Method: (§1) The agonistic or antagonistic action of substances can be quantified on the bradykinin 1 receptor (B1R) of the human and rat species with ectopically expressing cell lines (CHO K1 cells) and with the aid of a Ca^2+-sensitive dyestuff (Fluo-4) in a fluorescent imaging plate reader (FLIPR). The figure in % activation is based on the Ca^2+ signal after addition of Lys-Des-Arg^9-bradykinin (0.5 nM) or Des-Arg^9-bradykinin (100 nM). Antagonists lead to a suppression of the Ca^2+ inflow after addition of the agonist. % inhibition compared with the maximum achievable inhibition is stated.
(§2) The agonistic or antagonistic action of substances can be determined on the bradykinin 1 receptor (B1R) of humans and rats by means of a cell-based flourescent calcium-mobilization assay. According to this assay agonist-induced increase of intracellular free Ca^2+ is quantified by means of a Ca^2+-sensitive dye (Fluo-4 type, Molecular Probes Europe BV, Leiden, Netherlands), in a Fluorescent Imaging Plate Reader (FLIPR, Molecular Devices, Sunnyvale, USA) and/or the Novostar (BMG Labtech GmbH, Offenburg, Germany).
(§3) Chinese hamster ovary cells (CHO K1 cells), which are stably transfected with the human B1R gene (hB1R cells) or with the B1R gene of rats (rB1R cells), are used. For functional investigations these cells are seeded into black 96-well plates with a clear bottom (BD Biosciences, Heidelberg, Germany or Greiner, Frickenhausen, Germany) in a density of 20,000-35,000 cells/well. The cells are incubated overnight in a humidified atmosphere at 37° C. and 5% CO2 in culture medium (hB1R cells: Nutrient Mixture Ham's F12, Gibco Invitrogen GmbH, Karlsruhe, Germany or DMEM, Sigma-Aldrich, Taufkirchen, Germany; rB1R cells: D-MEM/F12, Gibco Invitrogen GmbH, Karlsruhe, Germany) with 10 vol. % FBS (foetal bovine serum, Gibco Invitrogen GmbH, Karlsruhe, Germany).
(§4) On the following day the cells are loaded with the Ca^2+-sensitive dye Fluo-4-AM (Molecular Probes Europe BV, Leiden, Netherlands):
(§5) Method A: The medium of the cells is removed and cell plates are incubated with loading solution, which contains 2.13 μM Fluo-4-AM, 2.5 mM probenecid (Sigma-Aldrich, Taufkirchen, Germany), and 10 mM HEPES (Sigma-Aldrich, Taufkirchen, Germany) in HBSS buffer (Hank's buffered saline solution, Gibco Invitrogen GmbH, Karlsruhe, Germany) for 60 minutes at 37° C. After the plates are washed twice with HBSS buffer, HBSS buffer supplemented 0.1% BSA (bovine serum albumin; Sigma-Aldrich, Taufkirchen, Germany), 5.6 mM glucose and 0.05% gelatine (Merck KGaA, Darmstadt, Germany) is added. Cell plates are incubated for at least 20 minutes in the dark at room temperature before they are used for the Ca^2+ measurement in the FLIPR or Novostar.
(§6) Method B: The plates are washed with buffer A (15 mM HEPES, 80 mM NaCl, 5 mM KCl, 1.2 mM CaCl2, 0.7 mM MgSO4, 2 mg/ml glucose, 2.5 mM probenecid) and subsequently loaded with buffer A containing 2.4 μM Fluo-4-AM and 0.025% pluronic F127 (Sigma-Aldrich, Taufkirchen, Germany) for 60 minutes at 37° C. Cell plates are washed twice with buffer A. Then, buffer A supplemented with 0.05% BSA and 0.05% gelatine is added and cell plates are incubated in the dark at room temperature for at least 20 minutes before measurement in the FLIPR or Novostar is started.
(§7) The Ca^2+-dependent fluorescence is measured both before and after the addition of substances (λex=488 nm, λem=540 nm). For quantification of the effect the highest fluorescence intensity (FC, fluorescence counts) over time is given. The FLIPR protocol consists of two substance additions, done within the instrument while continuously monitoring the Ca^2+-dependent fluorescence at 540 nm. When the Novostar was used, one addition had to be done outside the instrument. Test substances (10 μM) are initially pipetted onto the cells and the intracellular Ca^2+ rise is compared with the control (hB1R: Lys-Des-Arg9-bradykinin>=50 nM; rB1R: Des-Arg9-bradykinin>=1 μM). […]

B1R of rats = target: T2, B1R of rats (Rattus norvegicus, UniProt P97583); test: Functional investigation on the bradykinin 1 receptor (B1R), cell-based fluorescent calcium-mobilization assay (FLIPR/Novostar), rat; conditions: 10 μM test substance; CHO K1 cells stably transfected with rat B1R gene; agonist Des-Arg9-bradykinin at EC80; % inhibition compared with maximum achievable inhibition; read-out: B1R antagonism, rat [10 μM] % inhibition
T2 construct: expressed in transfected cells; host or cells: CHO K1 cells
T2 sequence (P97583 1-337): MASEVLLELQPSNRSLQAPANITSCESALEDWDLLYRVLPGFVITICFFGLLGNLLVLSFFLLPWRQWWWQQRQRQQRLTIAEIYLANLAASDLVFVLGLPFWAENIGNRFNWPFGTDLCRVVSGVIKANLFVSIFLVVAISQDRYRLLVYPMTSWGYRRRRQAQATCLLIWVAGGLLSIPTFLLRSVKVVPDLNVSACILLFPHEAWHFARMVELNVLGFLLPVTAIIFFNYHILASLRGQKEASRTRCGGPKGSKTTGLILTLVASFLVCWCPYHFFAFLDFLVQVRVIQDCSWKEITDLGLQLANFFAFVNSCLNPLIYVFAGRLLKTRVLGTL
Method: as §1, §2, §3, §4, §5, §6, §7

Structure (SMILES) | inhibition at 10 µM (human B1R) [%] | inhibition at 10 µM (B1R of rats) [%]
COc1cc(C)c(S(=O)(=O)N2CCCCC2COCC(=O)N2CCC(CNC(=O)c3ccncc3)(N3CCN(C)CC3)CC2)c(C)c1 (stereo not shown) [Example 28, N-((1-(2-((1-(4-methoxy-2,6-dimethylphenylsulfonyl)piperidin-2-yl)methoxy)acetyl)-4-(4-methylpiperazin-1-yl)piperidin-4-yl)methyl)-isonicotinamide] | 102 | 102
CN1CCN(C2(CNC(=O)c3ccncc3)CCN(C(=O)COCC3CCc4ccccc4N3S(=O)(=O)c3ccc(Cl)c(Cl)c3)CC2)CC1 (stereo not shown) [Example 30, N-((1-(2-((1-(3,4-dichlorophenylsulfonyl)-1,2,3,4-tetrahydroquinolin-2-yl)methoxy)acetyl)-4-(4-methylpiperazin-1-yl)piperidin-4-yl)methyl)-isonicotinamide] | 100 | 80
COc1cc(C)c(S(=O)(=O)N(C)CCOCC(=O)N2CCC(CNC(C)=O)(N3CCN(C)CC3)CC2)c(C)c1 [Example 31, N-((1-(2-(2-(4-methoxy-N,2,6-trimethylphenylsulfonamido)ethoxy)acetyl)-4-(4-methylpiperazin-1-yl)piperidin-4-yl)methyl)acetamide] | 103 | 101
COc1cc(C)c(S(=O)(=O)N(C)CCOCC(=O)N2CCC(CNC(=O)c3cccnc3)(N3CCN(C)CC3)CC2)c(C)c1 [Example 32, N-((1-(2-(2-(4-methoxy-N,2,6-trimethylphenylsulfonamido)ethoxy)acetyl)-4-(4-methylpiperazin-1-yl)piperidin-4-yl)methyl)nicotinamide] | 104 | 101
Cc1cc(S(=O)(=O)N2CCCCC2CCC(=O)N2CCC(CNC(=O)c3cccnc3)(N3CCN(C)CC3)CC2)c(C)cc1Cl (stereo not shown) [Example 33, N-((1-(3-(1-(4-chloro-2,5-dimethylphenylsulfonyl)piperidin-2-yl)propanoyl)-4-(4-methylpiperazin-1-yl)piperidin-4-yl)methyl)nicotinamide] | 103 | 100
COc1cc(C)c(S(=O)(=O)N2CCCCC2COCC(=O)N2CCC(CNC(=O)c3cccnc3)(N3CCN(C)CC3)CC2)c(C)c1 (stereo not shown) [Example 34, N-((1-(2-((1-(4-methoxy-2,6-dimethylphenylsulfonyl)piperidin-2-yl)methoxy)acetyl)-4-(4-methylpiperazin-1-yl)piperidin-4-yl)methyl)nicotinamide] | 104 | 102
CN1CCN(C2(CNC(=O)c3cccnc3)CCN(C(=O)CC(NS(=O)(=O)c3ccc4ccccc4c3)c3ccccc3)CC2)CC1 (stereo not shown) [Example 38, N-((4-(4-methylpiperazin-1-yl)-1-(3-(naphthalene-2-sulfonamido)-3-phenylpropanoyl)piperidin-4-yl)methyl)nicotinamide] | 50 | 73
CN1CCN(C2(CNC(=O)c3cccnc3)CCN(C(=O)COCC3CCc4ccccc4N3S(=O)(=O)c3ccc(Cl)c(Cl)c3)CC2)CC1 (stereo not shown) [Example 40, N-((1-(2-((1-(3,4-dichlorophenylsulfonyl)-1,2,3,4-tetrahydroquinolin-2-yl)methoxy)acetyl)-4-(4-methylpiperazin-1-yl)piperidin-4-yl)methyl)nicotinamide] | 49 | 103
COc1cc(C)c(S(=O)(=O)N(C)CCOCC(=O)N2CCC(CNC(C)=O)(N3CCN(c4ccncc4)CC3)CC2)c(C)c1 [Example 41, N-((1-(2-(2-(4-methoxy-N,2,6-trimethylphenylsulfonamido)ethoxy)acetyl)-4-(4-(pyridin-4-yl)piperazin-1-yl)piperidin-4-yl)methyl)acetamide] | 100 | 102

Continued, values first:

inhibition at 10 µM (human B1R) [%] | inhibition at 10 µM (B1R of rats) [%] | Structure (SMILES)
67 | 33 | CN1CCN(C2(CNC(=O)c3ccncc3)CCN(C(=O)CC3CCCCN3S(=O)(=O)c3cccc(C(F)(F)F)c3)CC2)CC1 (stereo not shown) [Example 29, N-((4-(4-methylpiperazin-1-yl)-1-(2-(1-(3-(trifluoromethyl)phenylsulfonyl)-piperidin-2-yl)acetyl)piperidin-4-yl)methyl)isonicotinamide]
89 | 102 | CC(=O)NCC1(N2CCN(C)CC2)CCN(C(=O)CC(NS(=O)(=O)c2ccc3ccccc3c2)c2ccccc2)CC1 (stereo not shown) [Example 35, N-((4-(4-methylpiperazin-1-yl)-1-(3-(naphthalene-2-sulfonamido)-3-phenylpropanoyl)piperidin-4-yl)methyl)acetamide]
99 | 101 | CC(=O)NCC1(N2CCN(c3ccncc3)CC2)CCN(C(=O)CC2CCCCN2S(=O)(=O)c2cccc(C(F)(F)F)c2)CC1 (stereo not shown) [Example 36, N-((4-(4-(pyridin-4-yl)piperazin-1-yl)-1-(2-(1-(3-(trifluoromethyl)phenyl-sulfonyl)piperidin-2-yl)acetyl)piperidin-4-yl)methyl)acetamide]
46 | 71 | CN1CCN(C2(CNC(=O)c3ccncc3)CCN(C(=O)CC(NS(=O)(=O)c3ccc4ccccc4c3)c3ccccc3)CC2)CC1 (stereo not shown) [Example 37, N-((4-(4-methylpiperazin-1-yl)-1-(3-(naphthalene-2-sulfonamido)-3-phenylpropanoyl)piperidin-4-yl)methyl)isonicotinamide]
11 | 94 | CN1CCN(C2(CNC(=O)c3cccnc3)CCN(C(=O)CC3CCCCN3S(=O)(=O)c3cccc(C(F)(F)F)c3)CC2)CC1 (stereo not shown) [Example 39, N-((4-(4-methylpiperazin-1-yl)-1-(2-(1-(3-(trifluoromethyl)phenylsulfonyl)-piperidin-2-yl)acetyl)piperidin-4-yl)methyl)nicotinamide]
